Data set [1] has as its system Cabbage Looper (Trichoplusia ni) ("CL"), second instar larvae. Kind of data set: Bioassay on cabbage looper (CL), 128-well diet tray assay. Particulars: for pest or weed control at 50 µg/cm2 / mortality at 50 µg/cm2: Trichoplusia ni; for pest or weed control at 50 µg/cm2: read-out: CL rating; for CL rating / mortality at 50 µg/cm2: Table ABC, species CL; for CL rating: C = not tested, D = no activity noticed; for mortality at 50 µg/cm2: 128-well diet tray assay, second instar larvae, read-out: CL rating (% control or mortality class). The data set is classed as in vivo. The method, boiled down:
(§1)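 Second-instar larvae on diet in 128-well trays, covered and held at 25° C, 14:10 light-dark, for five to seven days. Percent mortality scored per well and averaged over eight wells; activity reported as a rating category.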

Data set [2] relates to Beet Armyworm (Spodoptera exigua) ("BAW"), second instar larvae. Kind of data set: Bioassay on beet armyworm (BAW), 128-well diet tray assay. Format: in vivo. Particulars: for pest or weed control at 50 µg/cm2: Spodoptera exigua, read-out: BAW rating; for BAW rating / BAW rating (% control or mortality class): Table ABC, species BAW; for BAW rating: C = not tested, D = no activity noticed; for BAW rating (% control or mortality class): 128-well diet tray assay, second instar larvae. The method, boiled down: as §1

For `Cc1ccc(COCC(F)(F)F)c(N2C(=O)CS/C2=N\C(=O)Nc2ccc(-c3ncn(-c4ccc(F)cc4)n3)cc2F)c1` [Compound J782, (Z)-1-(2-Fluoro-4-(1-(4-fluorophenyl)-1H-1,2,4-triazol-3-yl)phenyl)-3-(3-(5-methyl-2-((2,2,2-trifluoroethoxy)methyl)phenyl)-4-oxothiazolidin-2-ylidene)urea], the pest or weed control at 50 µg/cm2 in data set [1] and in data set [2] was 50 to 100% throughout.

For the compound `CCCc1ccc(C)cc1N1C(=O)CS/C1=N\C(=O)Nc1ccc(-c2ncn(-c3ccc(N(C(=O)OC)C(F)(F)F)cc3)n2)cc1F` [Compound J783, Methyl (Z)-(4-(3-(3-fluoro-4-(3-(3-(5-methyl-2-propylphenyl)-4-oxothiazolidin-2-ylidene)ureido)phenyl)-1H-1,2,4-triazol-1-yl)phenyl)(trifluoromethyl)carbamate], the pest or weed control at 50 µg/cm2 in data set [1] and in data set [2] was 50 to 100% each time.

For the compound `CCCc1ccc(C)cc1N1C(=O)CS/C1=N\C(=O)Nc1ccc(-c2ncn(-c3ccc(N(C(=O)OC)C(F)(F)F)cc3)n2)cc1C` [Compound J784], the CL rating entry in data set [1] is “A (50-100)”. Further, in data set [2], the BAW rating entry is listed as “A (50-100)”.

`Cc1ccc(COCC(F)(F)F)c(N2C(=O)CS/C2=N\C(=O)Nc2ccc(-n3cnc(-c4ccc(OC(F)(F)F)cc4)c3)cc2Cl)c1` [Compound J786, (Z)-1-(2-Chloro-4-(4-(4-(trifluoromethoxy)phenyl)-1H-imidazol-1-yl)phenyl)-3-(3-(5-methyl-2-((2,2,2-trifluoroethoxy)methyl)phenyl)-4-oxothiazolidin-2-ylidene)urea]: in data set [1], the mortality (usually the percentage killed) at 50 µg/cm2 fell in the range of 50 to 100%. For the same compound, the “BAW rating (% control or mortality class)” value in data set [2] is listed as “A (50-100)”.

`Cc1ccc(COCC(F)F)c(N2C(=O)CS/C2=N\C(=O)Nc2ccc(-n3cnc(-c4ccc(OC(F)(F)F)cc4)c3)cc2Cl)c1` [Compound J787, (Z)-1-(2-Chloro-4-(4-(4-(trifluoromethoxy)phenyl)-1H-imidazol-1-yl)phenyl)-3-(3-(2-((2,2-difluoroethoxy)methyl)-5-methylphenyl)-4-oxothiazolidin-2-ylidene)urea]: the mortality at 50 µg/cm2 in data set [1] was in the range of 50 to 100%. Moreover, the “BAW rating (% control or mortality class)” value in data set [2] is recorded as “A (50-100)”.

Regarding `COCc1ccc(C)cc1N1C(=O)CS/C1=N\C(=O)Nc1ccc(-n2cnc(-c3ccc(OC(F)(F)F)cc3)c2)cc1Cl` [Compound J788, (Z)-1-(2-Chloro-4-(4-(4-(trifluoromethoxy)phenyl)-1H-imidazol-1-yl)phenyl)-3-(3-(2-(methoxymethyl)-5-methylphenyl)-4-oxothiazolidin-2-ylidene)urea], the mortality at 50 µg/cm2 in data set [1] was 50 to 100%. The “BAW rating (% control or mortality class)” value in data set [2] is given as “A (50-100)”.

`COCc1ccc(N(C)C)cc1N1C(=O)CS/C1=N\C(=O)Nc1ccc(-n2cnc(-c3ccc(OC(F)(F)F)cc3)c2)cc1Cl` [Compound J789, (Z)-1-(2-Chloro-4-(4-(4-(trifluoromethoxy)phenyl)-1H-imidazol-1-yl)phenyl)-3-(3-(5-(dimethylamino)-2-(methoxymethyl)phenyl)-4-oxothiazolidin-2-ylidene)urea]: the mortality at 50 µg/cm2 in data set [1] was in the range of 50 to 100%. In addition, the “BAW rating (% control or mortality class)” value in data set [2] is “A (50-100)”.

For the compound `Cc1ccc(OCCC(F)(F)F)c(N2C(=O)CS/C2=N\C(=O)Nc2ccc(-n3cnc(-c4ccc(OC(F)(F)F)cc4)c3)cc2Cl)c1` [Compound J790, (Z)-1-(2-Chloro-4-(4-(4-(trifluoromethoxy)phenyl)-1H-imidazol-1-yl)phenyl)-3-(3-(5-methyl-2-(3,3,3-trifluoropropoxy)phenyl)-4-oxothiazolidin-2-ylidene)urea], the mortality at 50 µg/cm2 in data set [1] was 50 to 100%. The “BAW rating (% control or mortality class)” value in data set [2] was “A (50-100)”.

As to `COC(c1ccc(C)cc1N1C(=O)CS/C1=N\C(=O)Nc1ccc(-n2cnc(-c3ccc(OC(F)(F)F)cc3)c2)cc1Cl)C(F)(F)F` (stereo not drawn) [Compound J791, (Z)-1-(2-Chloro-4-(4-(4-(trifluoromethoxy)phenyl)-1H-imidazol-1-yl)phenyl)-3-(3-(5-methyl-2-(2,2,2-trifluoro-1-methoxyethyl)phenyl)-4-oxothiazolidin-2-ylidene)urea], the mortality at 50 µg/cm2 in data set [1] was 50 to 100%. Further, in data set [2], the “BAW rating (% control or mortality class)” value is reported as “A (50-100)”.

Take `Cc1ccc(C(C)C)c(N2C(=O)CS/C2=N\C(=O)Nc2ccc(-n3cnc(-c4ccc(OC(F)(F)F)cc4)c3)cc2Cl)c1` [Compound J792, (Z)-1-(2-Chloro-4-(4-(4-(trifluoromethoxy)phenyl)-1H-imidazol-1-yl)phenyl)-3-(3-(2-isopropyl-5-methylphenyl)-4-oxothiazolidin-2-ylidene)urea]: the mortality at 50 µg/cm2 in data set [1] was 50 to 100%. Also, the “BAW rating (% control or mortality class)” value in data set [2] is recorded as “A (50-100)”.

As to `Cc1ccc(COCC(F)(F)F)c(N2C(=O)CS/C2=N\C(=O)Nc2ccc(-c3ncn(-c4ccc(C(F)(F)C(F)(F)F)cc4)n3)cc2F)c1` [Compound J793, (Z)-1-(2-Fluoro-4-(1-(4-(perfluoroethyl)phenyl)-1H-1,2,4-triazol-3-yl)phenyl)-3-(3-(5-methyl-2-((2,2,2-trifluoroethoxy)methyl)phenyl)-4-oxothiazolidin-2-ylidene)urea], in data set [1], the mortality at 50 µg/cm2 fell in the range of 50 to 100%. The “BAW rating (% control or mortality class)” value in data set [2] is “A (50-100)”.

`Cc1ccc(COCC(F)(F)F)c(N2C(=O)CS/C2=N\C(=O)Nc2ccc(-c3ncn(-c4ccc(C(F)(F)C(F)(F)F)cc4)n3)cc2C)c1` [Compound J794, (Z)-1-(3-(5-Methyl-2-((2,2,2-trifluoroethoxy)methyl)phenyl)-4-oxothiazolidin-2-ylidene)-3-(2-methyl-4-(1-(4-(perfluoroethyl)phenyl)-1H-1,2,4-triazol-3-yl)phenyl)urea]: the mortality at 50 µg/cm2 in data set [1] is 50 to 100%. Moreover, the “BAW rating (% control or mortality class)” value in data set [2] is on record as “A (50-100)”.

Take `CCOCc1ccc(C)cc1N1C(=O)CS/C1=N\C(=O)Nc1ccc(-c2ncn(-c3ccc(C(F)(F)C(F)(F)F)cc3)n2)cc1F` [Compound J795, (Z)-1-(3-(2-(Ethoxymethyl)-5-methylphenyl)-4-oxothiazolidin-2-ylidene)-3-(2-fluoro-4-(1-(4-(perfluoroethyl)phenyl)-1H-1,2,4-triazol-3-yl)phenyl)urea]: the mortality at 50 µg/cm2 in data set [1] lay within 50 to 100%. Also, in data set [2], the “BAW rating (% control or mortality class)” value is given as “A (50-100)”.

As to `CCOCc1ccc(C)cc1N1C(=O)CS/C1=N\C(=O)Nc1ccc(-c2ncn(-c3ccc(C(F)(F)C(F)(F)F)cc3)n2)cc1C` [Compound J796, (Z)-1-(3-(2-(Ethoxymethyl)-5-methylphenyl)-4-oxothiazolidin-2-ylidene)-3-(2-methyl-4-(1-(4-(perfluoroethyl)phenyl)-1H-1,2,4-triazol-3-yl)phenyl)urea], the mortality at 50 µg/cm2 in data set [1] was 50 to 100%. Besides, the “BAW rating (% control or mortality class)” value in data set [2] is listed as “A (50-100)”.

On to `Cc1cc(C)c(C)c(N2C(=O)CS/C2=N\C(=O)Nc2ccc(-c3ncn(-c4ccc(OC(F)(F)F)cc4)n3)cc2F)c1` [Compound J797, (Z)-1-(2-Fluoro-4-(1-(4-(trifluoromethoxy)phenyl)-1H-1,2,4-triazol-3-yl)phenyl)-3-(4-oxo-3-(2,3,5-trimethylphenyl)thiazolidin-2-ylidene)urea], for which, in data set [1], the mortality at 50 µg/cm2 lay in the range of 50 to 100%. In addition, in data set [2], the “BAW rating (% control or mortality class)” value is recorded as “A (50-100)”.

For `COc1c(C)cccc1N1C(=O)CS/C1=N\C(=O)Nc1ccc(-c2ncn(-c3ccc(OC(F)(F)F)cc3)n2)cc1F` [Compound J798, (Z)-1-(2-Fluoro-4-(1-(4-(trifluoromethoxy)phenyl)-1H-1,2,4-triazol-3-yl)phenyl)-3-(3-(2-methoxy-3-methylphenyl)-4-oxothiazolidin-2-ylidene)urea], the mortality at 50 µg/cm2 in data set [1] was 50 to 100%. The “BAW rating (% control or mortality class)” value in data set [2] is on record as “A (50-100)”.

As for `Cc1ccc(C(F)(F)F)cc1N1C(=O)CS/C1=N\C(=O)Nc1ccc(-c2ncn(-c3ccc(OC(F)(F)F)cc3)n2)cc1F` [Compound J799, (Z)-1-(2-Fluoro-4-(1-(4-(trifluoromethoxy)phenyl)-1H-1,2,4-triazol-3-yl)phenyl)-3-(3-(2-methyl-5-(trifluoromethyl)phenyl)-4-oxothiazolidin-2-ylidene)urea], in data set [1], the mortality at 50 µg/cm2 is 50 to 100%. The “BAW rating (% control or mortality class)” value in data set [2] is on record as “A (50-100)”.

For the compound `Cc1ccc(COCCF)c(N2C(=O)CS/C2=N\C(=O)Nc2ccc(-c3ncn(-c4ccc(OC(F)(F)C(F)(F)F)cc4)n3)cc2C)c1` [Compound J801, (Z)-1-(3-(2-((2-Fluoroethoxy)methyl)-5-methylphenyl)-4-oxothiazolidin-2-ylidene)-3-(2-methyl-4-(1-(4-(perfluoroethoxy)phenyl)-1H-1,2,4-triazol-3-yl)phenyl)urea], in data set [1], the mortality at 50 µg/cm2 lay in the range of 50 to 100%. In addition, in data set [2], the “BAW rating (% control or mortality class)” value is given as “A (50-100)”.

With `Cc1ccc(COCC(F)(F)F)c(N2C(=O)CS/C2=N\C(=O)Nc2ccc(-c3n[nH]c(-c4ccccc4)n3)cc2)c1` [Compound J802, (Z)-1-(3-(5-Methyl-2-((2,2,2-trifluoroethoxy)methyl)phenyl)-4-oxothiazolidin-2-ylidene)-3-(4-(5-phenyl-1H-1,2,4-triazol-3-yl)phenyl)urea], the mortality at 50 µg/cm2 in data set [1] is 50 to 100%. For the same compound, in data set [2], the “BAW rating (% control or mortality class)” value is given as “A (50-100)”.

As for “(Z)-1-(2-Fluoro-4-(1-(4-(trifluoromethoxy)phenyl)-1H-1,2,4-triazol-3-yl)phenyl)-3-(3-(5-methyl-2-((thiophen-3-ylmethoxy)methyl)phenyl)-4-oxothiazolidin-2-ylidene)urea [Compound J623]”, the CL rating entry in data set [1] is reported as “A (50-100)”. Moreover, in data set [2], the BAW rating entry is “A (50-100)”.

In the case of “(Z)-1-(3-(5-(Dimethylamino)-2-isopropylphenyl)-4-oxothiazolidin-2-ylidene)-3-(2-fluoro-4-(1-(6-(trifluoromethyl)pyridazin-3-yl))-1H-1,2,4-triazol-3-yl)phenyl)urea [Compound J393]”, the CL rating entry in data set [1] was “A (50-100)”. Moreover, in data set [2], the BAW rating entry is listed as “A (50-100)”.

The values are drawn from patent US20230077362A1 (CORTEVA AGRISCIENCE LLC, priority 2019, published 2023).
